In brackets after ≈: the same amount, converted by molar mass.
Conditions: buffer; pH 7.4; 200.0 µM

solubility kinetic | Structure (SMILES)
> 34.5 µg/mL | CN(C)c1cccc(NC(=O)c2ccco2)c1
> 57.2 µg/mL | Cc1noc(C)c1C(=O)OCC(=O)NCCc1ccc(S(N)(=O)=O)cc1
18.1 µg/mL (≈ 66.7 µM) | CCCC(=O)c1c[nH]c(C(=O)NCc2cccnc2)c1
> 54.5 µg/mL | COc1cc(CC(=O)OCC(=O)NCc2ccco2)cc(OC)c1OC
35 µg/mL (≈ 109 µM) | CCNC(=O)N1CCCC(C(=O)c2ccc(OC)c(OC)c2)C1 (stereo not drawn)
> 51.2 µg/mL | COc1ccc2nc(SCC(=O)NCCc3ccccc3)[nH]c2c1
> 50.7 µg/mL | O=C(NCCNC(=O)c1cc(Cl)ccc1Cl)c1ccccn1
9.4 µg/mL (≈ 30.1 µM) | Cc1cc(=O)c2cc(NC(=O)c3ccccc3Cl)ccc2[nH]1
3.5 µg/mL (≈ 10.9 µM) | O=C(Nc1ccc2c(c1)COC2=O)c1ccc(Cl)c(Cl)c1
< 0.2 µg/mL | O=C(Nc1cccc(F)c1)Nc1ccc(Cl)cn1
24.1 µg/mL (≈ 83.9 µM) | O=C(COC(=O)c1ccccc1)NCCC1=CCCCC1
< 0.7 µg/mL | CCOC(=O)C1=C(N)Oc2cc(O)ccc2C1c1ccc(F)cc1F (stereo not drawn)
> 45.2 µg/mL | O=C(CC(Cc1ccccc1)C(=O)O)Nc1ccc(F)cc1 (stereo not drawn)
> 36.9 µg/mL | NC(CSCc1ccccc1Cl)C(=O)O (stereo not drawn)
> 47.2 µg/mL | CC(C)(C)c1ccc(NC(=O)CCNC(=O)c2ccco2)cc1
> 49 µg/mL | CCOc1ccc(CN(C)C(=O)CNC(=O)c2ccccc2)cc1
> 50.6 µg/mL | CCc1noc(C)c1C(=O)NCCc1ccc(S(N)(=O)=O)cc1
21.3 µg/mL (≈ 63 µM) | COC(=O)c1cccc(NC(=O)CN2C(=O)c3ccccc3C2=O)c1
> 44.5 µg/mL | O=C(COC(=O)c1cccnc1Cl)NC1CCCCC1
< 0.3 µg/mL | CCCN(Cc1ccccc1)C(=S)Nc1cccc(C)c1C
> 30.1 µg/mL | NC(=O)NOCc1cccc(Cl)c1
23.6 µg/mL (≈ 81.3 µM) | COC(=O)c1sccc1NC(=O)Nc1ccccc1C
41.9 µg/mL (≈ 148 µM) | COc1ccccc1/C=C/C(=O)NCCc1ccccn1

solubility kinetic | Structure (SMILES)
3.8 µg/mL (≈ 11.7 µM) | CC(C)(C)c1ccc(NC(=O)CON=C(N)c2ccccc2)cc1
5.2 µg/mL (≈ 15.1 µM) | COc1ccc(NC(=O)COC(=O)CCc2ccccc2)c(OC)c1
3.7 µg/mL (≈ 9.7 µM) | O=C1CSc2ccc(C(=O)NCCc3ccc(Cl)cc3Cl)cc2N1
52.9 µg/mL (≈ 150 µM) | Cc1cc(=O)oc2cc(OCC(=O)Nc3ccccc3C(=O)O)ccc12
> 46.3 µg/mL | CCOC(=O)N1CCN(CC(=O)c2ccc(O)cc2O)CC1
45.4 µg/mL (≈ 129 µM) | O=C(NCCCNC(=O)c1cc(Cl)ccc1Cl)c1cnccn1
1.8 µg/mL (≈ 5.84 µM) | O=C(CN1C(=O)c2cccc3cccc1c23)NC1CCCCC1
3.4 µg/mL (≈ 10.4 µM) | CCOc1ccccc1NC(=O)NC(C)c1ccc2c(c1)OCO2 (stereo not drawn)
< 0.6 µg/mL | COC(=O)c1sccc1NC(=O)c1cccs1
38.2 µg/mL (≈ 145 µM) | O=C(O)CN1c2cccc3cccc(c23)S1(=O)=O
29.9 µg/mL (≈ 93.2 µM) | COc1cccc(CNC(=S)Nc2cccc(Cl)c2C)c1
8.3 µg/mL (≈ 32.3 µM) | CCCOc1nc2ccccc2cc1/C=C/C(=O)O
> 45.5 µg/mL | O=C(CNC(=O)c1ccccc1)OCC(=O)c1cccs1
> 47.8 µg/mL | O=S(=O)(NCCCN1CCOCC1)c1ccc(Cl)cc1
< 0.4 µg/mL | CCC(=O)c1c[nH]c(C(=O)NCc2cccc(C(F)(F)F)c2)c1
1.6 µg/mL (≈ 5.4 µM) | Cc1cc(NC(=O)CC2CCCC2)ccc1Br
> 32.7 µg/mL | COc1cccc(NC2=NCCCCC2)c1
42.5 µg/mL (≈ 139 µM) | O=C(COc1ccc(Cl)c2cccnc12)N1CCOCC1
21.5 µg/mL (≈ 64.5 µM) | COc1ccc(S(=O)(=O)Nc2cccnc2)c(Cl)c1Cl
< 0.2 µg/mL | CCOc1ccc(NC(=O)c2nc(SCC)ncc2Cl)cc1
> 43.5 µg/mL | OCC(O)C1OC(Nc2ccc(Cl)cc2)C(O)C1O (stereo not drawn)
> 35 µg/mL | COC(=O)c1cc(=O)c2cccc(OC)c2[nH]1

The remaining lines, values behind:

Structure (SMILES) | solubility kinetic
CN(/C=C/c1c([N+](=O)[O-])c(=O)n(C)c(=O)n1C)c1ccccc1 | 4.9 µg/mL (≈ 15.5 µM)
Cc1ccnc(SCC(=O)Nc2sccc2C#N)n1 | 13.2 µg/mL (≈ 45.5 µM)
CCC(CC)C(=O)Nc1ccc(C(=O)Nc2cc(C)on2)cc1 | 5.7 µg/mL (≈ 18.1 µM)
CCCCCCCN=C(C)c1ccccc1O | 13.9 µg/mL (≈ 59.6 µM)
CCc1ccc(-c2nc(CS(=O)CC(=O)O)c(C)o2)cc1 (stereo not drawn) | 46 µg/mL (≈ 150 µM)
Cc1ccc(O)c(Nc2c3ccccc3nc3ccccc23)c1 | 1.5 µg/mL (≈ 4.99 µM)
COc1ccc(CCNC(=O)C2CCCN(c3ncccn3)C2)cc1 (stereo not drawn) | 49 µg/mL (≈ 144 µM)
OCCCNc1nc(-c2ccccc2)nc2c1oc1ccccc12 | 1.3 µg/mL (≈ 4.07 µM)
O=C(NC1CCSC1=O)C1CCCCC1 (stereo not drawn) | > 34.1 µg/mL
N#Cc1ccsc1NC(=O)COC(=O)CCS(=O)(=O)c1ccccc1 | > 56.8 µg/mL
CC(c1ccccc1)c1nnc(N)s1 (stereo not drawn) | > 30.8 µg/mL
CC(=O)c1cccc(NC(=O)Nc2ccc3c(c2)OCO3)c1 | 3.1 µg/mL (≈ 10.4 µM)
CC(=O)c1c(C)[nH]c(C(=O)Nc2nc(C)cs2)c1C | 4.1 µg/mL (≈ 14.8 µM)
CC(C)CN(C(=O)CN(C)CC(=O)Nc1ccccc1C#N)c1c(N)n(CC(C)C)c(=O)[nH]c1=O | > 72.5 µg/mL
Cc1csc(NC(=O)c2sccc2C)n1 | > 35.7 µg/mL
Cc1cccc(NC(=O)NC2CCCCCCC2)c1C | 0.6 µg/mL (≈ 2.19 µM)
CN(C)CCOC1c2ccccc2-c2ccccc21.O=C(O)C(=O)O | > 51.5 µg/mL
Cc1ccc(S(=O)(=O)NC2CC2)cc1 | > 31.7 µg/mL
CSc1nc(C)[nH]c(=O)c1C#N | > 27.2 µg/mL
O=S(=O)(c1ccc(Cl)cc1)N1CCCC1c1cccnc1 (stereo not drawn) | > 48.4 µg/mL
O=C(O)/C=C/c1ccc2noc(-c3ccccc3)c2c1 | 3.7 µg/mL (≈ 13.9 µM)
COc1ccc(/C=C2\SC(N)=NC2=O)cc1Br | 5.3 µg/mL (≈ 16.9 µM)
CC1CCN(Cc2cc(=O)oc3ccc(C(C)C)cc23)CC1.Cl | 4 µg/mL
Cc1cc(C)nc(SCC(=O)NC2CCCC2)n1 | > 39.8 µg/mL
Cn1c(=O)n(CC(=O)[O-])c(=O)c2c1nc1n2CCS1 | 40.8 µg/mL
CC1CCCC(NC(=O)c2ccncc2)C1C (stereo not drawn) | > 34.8 µg/mL

Structure (SMILES) | solubility kinetic
O=C(NC1CCN(C(=O)Nc2ccc(F)cc2)CC1)c1ccc(F)cc1 | 3.7 µg/mL (≈ 10.3 µM)
CN(C1CCCCC1)S(=O)(=O)c1cccc2nsnc12 | > 46.7 µg/mL
Cc1ccc(NS(=O)(=O)c2ccc3c(c2)n(C)c(=O)n3C)cc1C | 1.2 µg/mL (≈ 3.47 µM)
CCCOc1ccc(NC(=O)c2cc3cc(C)ccc3[nH]2)cc1 | < 0.3 µg/mL
CC(C)c1ccc(OCC(O)CN2CCCC2)cc1.Cl (stereo not drawn) | 43.8 µg/mL
O=C(COC(=O)[C@H](Cc1ccccc1)NC(=O)c1ccco1)Nc1ccccc1OC(F)F | 64 µg/mL (≈ 140 µM)
CC1CC(C)CN(c2ccc([N+](=O)[O-])nc2)C1 (stereo not drawn) | 28.6 µg/mL (≈ 122 µM)
N#C/C(=C\c1ccco1)C(=O)Nc1ccc(S(N)(=O)=O)cc1 | 3.5 µg/mL (≈ 11 µM)
O=c1[nH]c(=S)n(C2CCCCC2)c(O)c1C=NCCN1CCOCC1 | 53 µg/mL (≈ 145 µM)
Cc1c(C=O)c2ccccc2n1CCOc1ccccc1 | 6.2 µg/mL (≈ 22.2 µM)
CC(C)C1/C(=N/O)CC(c2ccccc2)NC1c1ccccc1 (stereo not drawn) | < 0.3 µg/mL
O=C(Nc1ccc2nc(N3CCOCC3)sc2c1)c1ccccc1 | 7.2 µg/mL (≈ 21.2 µM)
COc1nc(OCC#N)nc(N2CCCCC2)n1 | 31.6 µg/mL (≈ 127 µM)
CC1C(=O)N2CCCc3cc(NC(=O)C(=O)NCc4cccnc4)cc1c32 (stereo not drawn) | > 54.7 µg/mL
O=C(CSc1ccc2ccccc2n1)c1ccccc1 | 1.5 µg/mL (≈ 5.37 µM)
COc1ccccc1CNC(=O)CCNS(=O)(=O)/C=C/c1ccc(C)cc1 | 57.8 µg/mL (≈ 149 µM)
O=C(Cn1cc([N+](=O)[O-])ccc1=O)NC1CCCCC1 | > 41.9 µg/mL
O=C1/C(=C\c2ccncc2)N2CCC1CC2 | > 32.1 µg/mL
CCN(CC)C(=O)C(C)N(C#N)c1nc(Cl)nc(N(C)C)n1 (stereo not drawn) | > 48.9 µg/mL
COc1ccc(C2=NOC(C(=O)Nc3ccc4c(c3)OCO4)C2)cc1 (stereo not drawn) | 1.6 µg/mL (≈ 4.7 µM)
COCCn1cc(C(=S)N2CCCCC2)c2ccccc21 | > 45.4 µg/mL
Cn1c(-c2ccc(F)cc2)cnc1NCc1ccc(F)cc1F | 34.9 µg/mL (≈ 110 µM)
Cc1nc(-c2cc(C#N)c(=O)[nH]c2C)cs1 | > 34.7 µg/mL
Nc1ccccc1C#Cc1ccc([N+](=O)[O-])cc1 | 1.1 µg/mL (≈ 4.62 µM)
Fc1cccc(NC(=S)N2CCn3cccc3C2c2cccnc2)c1 (stereo not drawn) | 51.9 µg/mL (≈ 147 µM)
Cn1cc(C(=O)Nc2ccccn2)c(=O)c2ccccc21 | 1.3 µg/mL (≈ 4.65 µM)

Structure (SMILES) | solubility kinetic
O=C(Nc1cccnc1)OC1CCCCC1 | > 33 µg/mL
CCOC(=O)c1c(NC(=O)CNC2CCCCC2)sc(C)c1C | < 0.4 µg/mL
COc1ccc(CCNC(=O)CCc2ccc(OC)cc2)cc1 | 11.4 µg/mL (≈ 36.4 µM)
CC1C(=O)N2CCCc3cc(S(=O)(=O)N4CCCCC4)cc1c32 (stereo not drawn) | > 50.2 µg/mL
NC(=O)C1CCCN(C(=O)c2ccc3c(c2)NC(=O)CS3)C1 (stereo not drawn) | > 47.9 µg/mL
COc1ccc(OC)c([C@@H](O)[C@H](C)NC(C)(C)C)c1.Cl | > 45.6 µg/mL
CN(C)C=Nc1nonc1-c1ccccc1 | 24.4 µg/mL (≈ 113 µM)
CCOC(=O)c1cnc(-c2ccccc2)nc1N1CC(C)OC(C)C1 (stereo not drawn) | 32.1 µg/mL (≈ 94 µM)
CCOc1ccc(NC(=O)NC(C)c2ccc3c(c2)OCO3)cc1 (stereo not drawn) | 1.9 µg/mL (≈ 5.79 µM)
C/C(=N\Nc1ccc2nncn2n1)c1cccs1 | > 38.7 µg/mL
CC(Sc1ccccn1)C(=O)NC1CCCC1 (stereo not drawn) | > 37.6 µg/mL
O=C1c2ccccc2C(=O)c2[nH]c(=O)[nH]c21 | > 32.1 µg/mL
CCOc1ccc(-c2nc(N)ncc2-c2ccccc2OC)c(O)c1 | 1.3 µg/mL (≈ 3.85 µM)
O=C(OC1CCOC1=O)c1ccc(N2CCCC2)c([N+](=O)[O-])c1 (stereo not drawn) | > 48 µg/mL
CCn1c(NC(=O)C(C)C)c(-c2ccccc2)c(=O)c2ccccc21 | 30.9 µg/mL (≈ 92.4 µM)
COc1cc(NC(=O)CCc2c(C)noc2C)c(Cl)cc1C(=O)O | > 52.9 µg/mL
Cc1ccccc1CN(C)C(=O)CNC(=O)c1ccc2ccccc2c1 | 31.1 µg/mL (≈ 89.8 µM)
COc1ccc(NC(=O)c2ccc3[nH]c(C)c(C)c3c2)c(OC)c1 | 1.9 µg/mL (≈ 5.86 µM)
N#Cc1cn(N2CCCCC2)c(=O)[nH]c1=O | > 33 µg/mL
O=S(=O)(NCc1csc(-c2cccs2)n1)c1ccccc1 | 40.6 µg/mL (≈ 121 µM)
O=C(c1ccccc1)C(C(=O)N1CCCCC1)n1ccccc1=O (stereo not drawn) | > 48.7 µg/mL
COc1ccc(C(=S)N2CCCC2)cc1Br | > 45 µg/mL
O=S1(=O)CCC(=Nc2ccc(Cl)cc2)c2ccsc21 | 20.3 µg/mL (≈ 65.1 µM)
Cn1cc(C(=O)C(=O)N2CCCC2)c2ccccc21 | > 38.4 µg/mL
COc1ccc(Cc2c(O)nc(SCC(C)C)[nH]c2=O)cc1 | 47.2 µg/mL (≈ 147 µM)
Brc1ccc(-c2ncc3ccccn23)cc1 | 29.3 µg/mL (≈ 107 µM)

— PubChem BioAssay AID1996
